Results published in patent publication US20210380623A1, “PRODRUG GALACTOSIDE INHIBITOR OF GALECTINS” (GALECTO BIOTECH AB, priority 2018, published 2021).
≈ marks a conversion by molar mass, not a printed value.

How the values were obtained:
galectins = details: cited from earlier work
Galectin-3 = Galectin-3 (Homo sapiens, UniProt P17931); test: fluorescence anisotropy assay, inhibition of galectin / fluorescein tagged saccharide probe interaction; assay type: binding; details: for Kd: fluorescence anisotropy; for affinity towards the corresponding galectin (in words): pro-drug itself
Sequence of Galectin-3 (P17931 whole entry): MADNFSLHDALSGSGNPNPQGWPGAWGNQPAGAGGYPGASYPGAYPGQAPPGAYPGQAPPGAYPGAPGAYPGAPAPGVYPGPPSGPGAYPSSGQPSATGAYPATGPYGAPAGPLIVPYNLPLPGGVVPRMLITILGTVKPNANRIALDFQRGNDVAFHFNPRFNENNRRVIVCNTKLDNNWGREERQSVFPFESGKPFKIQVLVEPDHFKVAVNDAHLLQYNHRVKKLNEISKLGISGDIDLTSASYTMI

aqueous solubility = assay type: physicochemical; details: water
[1] = mouse PK experiments, plasma exposure of Ref 1 after p.o. administration; assay type: in vivo; details: for exposure in mice PK after per oral administration: mouse, p.o., 20, 40, 80 and 160 mg/kg, plasma exposure of Ref 1

Row | Structure (SMILES) | Kd (Galectin-3) | solubility (aqueous solubility) | also measured
1 | O=C[C@H](O)[C@@H](O)[C@@H](O)[C@H](O)CO [D-galactose] |  |  | affinity, times lower than lactose (galectins; relative to lactose): 50-100 times
2 | O=P(O)(O)OC[C@H]1O[C@H](Sc2cncc(Br)c2)[C@H](O)[C@@H](n2cc(-c3cc(F)c(F)c(F)c3)nn2)[C@H]1O [Example 1, 5-Bromopyridin-3-yl 3-deoxy-3-[4-(3,4,5-trifluorophenyl)-1H-1,2,3-triazol-1-yl]-6-O-phospho-1-thio-α-D-galactopyranoside] | 35 µM | 8500 µg/mL (≈ 13.9 mM) | affinity towards the corresponding galectin (in words) (Galectin-3): low
3 | O=S(=O)(O)OC[C@H]1O[C@H](Sc2cncc(Br)c2)[C@H](O)[C@@H](n2cc(-c3cc(F)c(F)c(F)c3)nn2)[C@H]1O [Example 6, 5-Bromopyridin-3-yl 3-Deoxy-3-[4-(3,4,5-trifluorophenyl)-1H-1,2,3-triazol-1-yl]-6-O-sulfo-1-thio-α-D-galactopyranoside] | 27 µM | 9600 µg/mL (≈ 15.7 mM) | 
4 | O=P(O)(O)OCOC[C@H]1O[C@H](Sc2cncc(Br)c2)[C@H](O)[C@@H](n2cc(-c3cc(F)c(F)c(F)c3)nn2)[C@H]1O [Example 7, 5-Bromopyridin-3-yl 3-deoxy-3-[4-(3,4,5-trifluorophenyl)-1H-1,2,3-triazol-1-yl]-6-O-[(phosphonooxy)methyl]-1-thio-α-D-galactopyranoside] | 15 µM | > 10000 µg/mL | affinity towards the corresponding galectin (in words) (Galectin-3): low; exposure in mice PK after per oral administration [1]: dose correlated exposure
5 | O=P(O)(O)OCO[C@@H]1[C@@H](n2cc(-c3cc(F)c(Cl)c(F)c3)nn2)[C@@H](O)[C@@H](CO)O[C@@H]1Sc1cncc(Br)c1 [Example 9, 5-Bromopyridin-3-yl 3-[4-(4-chloro-3,5-difluorophenyl)-1H-1,2,3-triazol-1-yl]-3-deoxy-2-O-[(phosphonooxy)methyl]-1-thio-α-D-galactopyranoside] | 0.007 µM | 800 µg/mL (≈ 1.21 mM) | 
6 | OC[C@H]1O[C@H](Sc2cncc(Br)c2)[C@H](O)[C@@H](n2cc(-c3cc(F)c(Cl)c(F)c3)nn2)[C@H]1O [Ref 3, 5-Bromopyridin-3-yl 3-deoxy-3-[4-(4-chloro-3,5-difluorophenyl)-1H-1,2,3-triazol-1-yl]-1-thio-α-D-galactopyranoside, reference compound] |  | 7 µg/mL (≈ 0.0127 mM) | 
7 | OC[C@H]1O[C@@H](O[C@H]2[C@H](O)[C@@H](O)C(O)O[C@@H]2CO)[C@H](O)[C@@H](O)[C@H]1O (stereo partly shown) [lactose] |  |  | Kd (galectins; read-out: Kd, all galectins): 500 to 1000 µM

Second part, led by results:

Row | Kd (Galectin-3) | solubility (aqueous solubility) | Structure (SMILES) | also measured
8 | 0.006 µM | 9800 µg/mL (≈ 16 mM) | O=P(O)(O)O[C@@H]1[C@@H](n2cc(-c3cc(F)c(F)c(F)c3)nn2)[C@@H](O)[C@@H](CO)O[C@@H]1Sc1cncc(Br)c1 [Example 2, 5-Bromopyridin-3-yl 3-deoxy-3-[4-(3,4,5-trifluorophenyl)-1H-1,2,3-triazol-1-yl]-2-O-phospho-1-thio-α-D-galactopyranoside] | 
9 | 0.007 µM |  | O=P(O)(O)O[C@@H]1[C@@H](n2cc(-c3cc(F)c(F)c(F)c3)nn2)[C@@H](O)[C@@H](CO)O[C@@H]1Sc1ccc(Cl)c(Cl)c1 [Example 3, 3,4-Dichlorophenyl 3-deoxy-3-[4-(3,4,5-trifluorophenyl)-1H-1,2,3-triazol-1-yl]-2-O-phospho-1-thio-α-D-galactopyranoside] | 
10 | 0.014 µM |  | O=S(=O)(O)OC1C(n2cc(-c3cc(F)c(F)c(F)c3)nn2)[C@@H](O)C(CO)O[C@@H]1Sc1ccc(Cl)c(Cl)c1 (stereo partly drawn) [Example 4, 3,4-Dichlorphenyl 3-Deoxy-3-[4-(3,4,5-trifluorophenyl)-1H-1,2,3-triazol-1-yl]-2-O-sulfo-1-thio-α-D-galactopyranoside] | 
11 | 0.004 µM |  | O=S(=O)(O)O[C@@H]1[C@@H](n2cc(-c3cc(F)c(F)c(F)c3)nn2)[C@@H](O)[C@@H](CO)O[C@@H]1Sc1cncc(Br)c1 [Example 5, 5-Bromopyridin-3-yl 3-Deoxy-3-[4-(3,4,5-trifluorophenyl)-1H-1,2,3-triazol-1-yl]-2-O-sulfo-1-thio-α-D-galactopyranoside] | 
12 | 0.01 µM | > 10000 µg/mL | O=P(O)(O)OCO[C@@H]1[C@@H](n2cc(-c3cc(F)c(F)c(F)c3)nn2)[C@@H](O)[C@@H](CO)O[C@@H]1Sc1cncc(Br)c1 [Example 8, 5-Bromopyridin-3-yl 3-deoxy-3-[4-(3,4,5-trifluorophenyl)-1H-1,2,3-triazol-1-yl]-2-O-[(phosphonooxy)methyl]-1-thio-α-D-galactopyranoside] | exposure in mice PK after per oral administration [1]: dose correlated exposure
13 |  | 7 µg/mL (≈ 0.0131 mM) | OC[C@H]1O[C@H](Sc2cncc(Br)c2)[C@H](O)[C@@H](n2cc(-c3cc(F)c(F)c(F)c3)nn2)[C@H]1O [Ref 1, 5-Bromopyridin-3-yl 3-deoxy-3-[4-(3,4,5-trifluorophenyl)-1H-1,2,3-triazol-1-yl]-1-thio-α-D-galactopyranoside, reference compound] | oral availability ([1]; mouse PK, some formulations, dosed above 10 mg/kg): limited oral availability
14 |  | 37 µg/mL (≈ 0.0708 mM) | OC[C@H]1O[C@H](Sc2ccc(Cl)c(Cl)c2)[C@H](O)[C@@H](n2cc(-c3cc(F)c(F)c(F)c3)nn2)[C@H]1O [Ref 2, 3,4-Dichlorophenyl 3-deoxy-3-[4-(3,4,5-trifluorophenyl)-1H-1,2,3-triazol-1-yl]-1-thio-α-D-galactopyranoside, reference compound] | 
